Results reported in patent US7579353B2, “Pyridinone derivatives against malaria” (Glaxo Group Limited, priority 2005, dated 2009).
Converted amounts (≈) assume the structure as drawn. Read-outs that look alike come from different tables or passages of the source.

Legend:
[1] = Compound solubility determination (gross and equilibrium solubility; FaSSIF, FeSSIF, pH 7.4 PBS, pH 1.0 0.1N HCl, pH 4.5 sodium citrate); type: physicochemical; conditions: thermodynamic from solid
Method: Compound Solubility Determination
An amount of 3 mg solid compound with LC-MS purity ≧95% was required. This amount was split between 3 different glass vials (1.8 ml volume each), placing 1 mg compound into each one.
Organic solvents of HPLC grade were used. Ultra pure water (Milli-Q grade) was used. Buffers were prepared with ultra pure water and filtered using 0.45μ cameo filters. The compositions of each solvent employed in this assay are described below (part III).
2. Determination of Equilibrium Solubility (Assuming Chemical Stability in the Desired Solvent is not a Problem).
For each of the three vial samples prepared as described above, in which the amount of compound was totally dissolved, the following procedure was subsequently carried out: • a) A small amount (approx. 0.1 mg) of additional solid compound was added to the vial to maintain an excess of the compound in the mixture in the form of undissolved solid. • b) The samples were magnetically stirred for 24 hr. If required, additional solid compound (0.1 mg) was added to maintain excess of it and then the samples were stirred again. • c) Then the samples were filtered (Millipore Milex filters nylon 0.2 um) and three aliquots were taken (one from each of the three vials) and analysed by LC-MS. • d) The pH of the final solution in each sample was measured with a pH-meter (WTW pH330i and a pH-electrode Sentix 41).
3. LC-MS Assay for Analytical Quantification
All filtered aliquots were analysed by LC-MS. The analysis was carried out with a Luna 5 μC18 (2) column 4.6×150 mm, using a HP1100 HPLC instrument interfaced with a Waters ZMD-2000 MS spectrometer. The concentration of the final sample as prepared above was calculated from that of a reference calibration curve obtained from serial dilutions of a 2 mM solution of the compound under investigation in DMSO (Aldrich cat. ref.: 27685-5) stock solution.
The analysis of all LC-MS data was performed with MassLynx 3.4 software. Statistical and graphic analysis of data was performed using Microsoft Excel. The concentration (uM) and solubility (ug/ml) for each compound was calculated using the peak areas from the sample and those from the calibration curve.
A) FaSSIF is a solvent which simulates the Fasted State of the Intestinal Fluid. (FaSSIF: Fasted State Simulated Intestinal Fluid).
B) FeSSIF is a solvent which simulates the Fed State of the Intestinal Fluid. (FeSSIF: Fed State Simulated Intestinal Fluid).
C) Solubility at pH 7.4 was determined in phosphate buffered saline (PBS) (Fluka cat. ref: 79383)
D) Solubility at pH 1.0 was determined in 0.1N HCl solution (Scharlau AL0744010C)
E) Solubility at pH 4.5 was determined in sodium citrate 0.5M solution. (Aldrich 25, 127-5)

Plasmodium falciparum = assay: In vitro anti-malarial activity against Plasmodium falciparum, IC50 assay / [3H]-hypoxanthine incorporation assay; type: cell-based; conditions: Erythrocyte, parasitized red blood cells, 48 hours
[2] = 0.1N HCl solution, simulated gastric fluid, pH 1 (HCl), read-out: Solubility at pH 1 (HCl)
[3] = FaSSIF (fasted state simulated intestinal fluid), fassif, read-out: Solubility in FaSSIF
[4] = phosphate buffered saline (PBS), aqueous buffer, pH 7.4 (PBS), read-out: Solubility at pH 7.4 (PBS)
[5] = sodium citrate 0.5M solution, aqueous buffer, pH 4.5 (Na citrate), read-out: Solubility at pH 4.5 (Na citrate)
[6] = aqueous buffer, pH 4.5 (Na citrate), read-out: Solubility at pH 4.5 (Na citrate)
[7] = aqueous buffer, pH 7.4 (PBS), read-out: Solubility at pH 7.4 (PBS)
[8] = fassif, read-out: Solubility in FaSSIF
[9] = simulated gastric fluid, pH 1 (HCl), read-out: Solubility at pH 1 (HCl)
[10] = FeSSIF (fed state simulated intestinal fluid), fessif, read-out: Solubility in FeSSIF

SMILES	solubility at 24 h [1, 2]	solubility at 24 h [1, 3]	solubility at 24 h [1, 4]	solubility at 24 h [1, 5]	IC50 (Plasmodium falciparum)	solubility at 24 h [1, 6]	solubility at 24 h [1, 7]	solubility at 24 h [1, 8]	solubility at 24 h ([1]; fessif, read-out: Solubility in FeSSIF)	solubility at 24 h [1, 9]	solubility at 24 h [1, 10]
Cc1[nH]c(C)c(-c2ccc(-c3ccc(C(F)(F)F)cc3C(F)(F)F)nc2)c(=O)c1Br [Example 24, 5-Bromo-2,6-dimethyl-6′-{2,4-bis[trifluoromethyl]phenyl}-3,3′-bipyridin-4(1H)-one]	5 to 10 µg/mL (≈ 10.2 to 20.4 µM)	< 1 µg/mL	< 1 µg/mL	< 1 µg/mL	< 0.125 µg/mL						
Cc1[nH]c(C)c(-c2ccc(-c3cccc(Cl)c3)nc2)c(=O)c1Br [Example 20, 5-Bromo-6′-(3-chlorophenyl)-2,6-dimethyl-3,3′-bipyridin-4(1H)-one]	≥ 50 µg/mL	< 1 µg/mL	< 1 µg/mL	< 1 µg/mL	< 0.125 µg/mL						
Cc1[nH]c(C)c(-c2ccc(-c3ccccc3F)nc2)c(=O)c1Cl [Example 37, 5-Chloro-6′-(2-fluorophenyl)-2,6-dimethyl-3,3′-bipyridin-4(1H)-one]	≥ 50 µg/mL	10 to 50 µg/mL (≈ 30.4 to 152 µM)	10 to 50 µg/mL (≈ 30.4 to 152 µM)	10 to 50 µg/mL (≈ 30.4 to 152 µM)	< 0.125 µg/mL						
CCCCCCCCCc1cnc(-c2c(C)[nH]c(C)c(Cl)c2=O)nc1 [Example 50, 3-Chloro-2,6-dimethyl-5-(5-nonyl-2-pyrimidinyl)-4(1H)-pyridinone]					< 0.125 µg/mL	< 1 µg/mL	< 1 µg/mL	< 1 µg/mL	1 to 5 µg/mL (≈ 2.76 to 13.8 µM)	5 to 10 µg/mL (≈ 13.8 to 27.6 µM)	
Cc1[nH]c(C)c(-c2ccc(-c3cc(C(F)(F)F)ccc3Cl)nc2)c(=O)c1Cl [Example 57, 5-chloro-6′-[2-chloro-5-(trifluoromethyl)phenyl]-2,6-dimethyl-3,3′-bipyridin-4(1H)-one]	≥ 50 µg/mL	5 to 10 µg/mL (≈ 12.1 to 24.2 µM)	< 1 µg/mL	< 1 µg/mL	< 0.125 µg/mL						10 to 50 µg/mL (≈ 24.2 to 121 µM)
Cc1[nH]c(C)c(-c2ccc(-c3ccc4c(c3)OCO4)nc2)c(=O)c1Br [Example 53]	≥ 50 µg/mL	5 to 10 µg/mL (≈ 12.5 to 25 µM)	1 to 5 µg/mL (≈ 2.5 to 12.5 µM)	5 to 10 µg/mL (≈ 12.5 to 25 µM)	< 0.125 µg/mL						
Cc1[nH]c(C)c(-c2ccc(CCc3ccc(C(F)(F)F)cc3)nc2)c(=O)c1Cl [Example 45, 5-Chloro-2,6-dimethyl-6′-{2-[4-(trifluoromethyl)phenyl]ethyl}-3,3′-bipyridin-4(1H)-one]	≥ 50 µg/mL	10 to 50 µg/mL (≈ 24.6 to 123 µM)	5 to 10 µg/mL (≈ 12.3 to 24.6 µM)	10 to 50 µg/mL (≈ 24.6 to 123 µM)	< 0.125 µg/mL						
Cc1[nH]c(C)c(-c2ccc(OCc3ccc(C(F)(F)F)cc3)nc2)c(=O)c1Cl [Example 10, 5-Chloro-2,6-dimethyl-6′-{[4-(trifluoromethyl)benzyl]oxy}-3,3′-bipyridin-4(1H)-one]					< 0.125 µg/mL	< 1 µg/mL	< 1 µg/mL	< 1 µg/mL		5 to 10 µg/mL (≈ 12.2 to 24.5 µM)	
CCCCc1ccc(-c2ccc(-c3c(C)[nH]c(C)c(Br)c3=O)cn2)cc1 [Example 26, 5-Bromo-6′-(4-n-butylphenyl)-2,6-dimethyl-3,3′-bipyridin-4(1H)-one]	10 to 50 µg/mL (≈ 24.3 to 122 µM)	10 to 50 µg/mL (≈ 24.3 to 122 µM)	< 1 µg/mL	< 1 µg/mL	< 0.125 µg/mL						
Cc1[nH]c(C)c(-c2ccc(-c3ccc(Cl)cc3)nc2)c(=O)c1Br [Example 19, 5-Bromo-6′-(4-chlorophenyl)-2,6-dimethyl-3,3′-bipyridin-4(1H)-one]	10 to 50 µg/mL (≈ 25.7 to 128 µM)	1 to 5 µg/mL (≈ 2.57 to 12.8 µM)	1 to 5 µg/mL (≈ 2.57 to 12.8 µM)	1 to 5 µg/mL (≈ 2.57 to 12.8 µM)	< 0.125 µg/mL						5 to 10 µg/mL (≈ 12.8 to 25.7 µM)
